Test results as given in patent US4524146A, “Certain -2-heterocycle substituted pyrazoloquinolines” (Ciba-Geigy Corporation, priority 1982, dated 1985).
pIC50: −log10 of the molar value.

Tests used:
benzodiazepine receptor [1] = test: in vitro benzodiazepine receptor binding assay (inhibition of specific binding of 2 nM tritiated diazepam); conditions: membranes from rat fore-brain, 0°-5°, 30 minutes, pH7.5
Experimental: The benzodiazepine receptor binding properties indicative of the nervous system regulatory activity of said new compounds are determined in the receptor binding assay in vitro, e.g. as described in Nature 266, 732 (1977) or Proc. Nat. Acad. Sci. USA 74, 3805 (1977). Diazepam binds specifically and with high affinity to crude synaptosomal membrane preparations from rat fore-brain. This binding is inhibited by other anxiolytic compounds. When tritiated diazepem is used, the interaction of other drugs with said receptor can be readily assessed thus: membranes from rat fore-brain are incubated at 0°-5° for 30 minutes with 2 nM tritiated diazepam and various concentrations of the test substance in a buffer medium maintained at pH7.5. Solutions of the various concentrations of test substances are prepared by dilution of a 4.2 mM stock solution in dimethylacetamide-ethanol (1:10) with 50 mM pH7.5 Tris-HCl buffer. The membranes, containing the receptors with various amounts of tritiated diazepam, are filtered onto glass fiber filters, which are then analyzed in a liquid scintillation counter. The concentration of the compounds of this invention, required to inhibit the specific binding of 2 nM of tritiated diazepam by 50%, i.e. the IC50, is determined graphically.

benzodiazepine receptor [2] = test: in vivo benzodiazepine receptor binding (3H-flunitrazepam); parameters: species or system mice or rats; conditions: dose of about 30 mg/kg i.p.
Experimental: In vivo benzodiazepine receptor binding is determined essentially as described in Eur. J. Pharmacol. 48, 213 (1978) and Nature 275, 551 (1978).
Test compounds in a corn starch vehicle are administered orally or intraperitioneally to mice or rats. Thirty minutes later, 3H-flunitrazepam(2 nmoles/Kg in saline) is injected into the tail vein, and the animals are sacrificed 20 minutes after injection of the flunitrazepam. The brains are then assayed by determining radioactivity in a liquid scintillation counter for binding of the radioligand to the receptors. A decrease in the binding of 3H-flimotrazepam in the drug-treated animals (as compared with the binding observed in animals treated with vehicle alone) is indicative of benzodiazepine receptor binding by the test compound.

Row | pIC50 (benzodiazepine receptor [1]) | SMILES | inhibition of flunitrazepam binding in vivo (benzodiazepine receptor [2])
1 | ~8.22 | O=c1c2c[nH]c3ccccc3c-2nn1-c1ncccn1 [Example 1, 2-(2-pyrimidyl)-pyrazolo[4,3-c]quinolin-3(5H)-one] | 
2 | ~8.70 | O=c1c2c[nH]c3ccc(F)cc3c-2nn1-c1ncccn1 [Example 2, 8-fluoro-2-(2-pyrimidyl)-pyrazolo[4,3-c]quinolin-3(5H)-one] | 
3 | ~9.52 | O=c1c2c[nH]c3ccccc3c-2nn1-c1nccs1 [Example 4, 2-(2-thiazolyl)-pyrazolo[4,3-c]quinolin-3(5H)-one] | inhibits flunitrazepam binding in vivo
